Laboratory results taken from patent US6071945A, “8H-thieno-[2,3-b]pyrrolizin-8-one compounds” (Adir et Compagnie, priority 1998, dated 2000).

What was measured:
[1] = system: KB-A1 multi-drug resistant (adriamycin) human epidermoid carcinoma cells; assay: In vitro cytotoxicity (Microculture Tetrazolium Assay), KB-A1; type: cell-based; settings: 96 h, KB-A1, 4 days incubation, read-out: IC50, concentration that inhibits the proliferation of the treated cells by 50%
Description: (§1) Six cell lines were used:
(§2) 1 human epidermoid carcinoma, KB-3-1 , and the corresponding resistant line, KB-A 1, the multi-drug, resistance of which was produced using adriamycin (ADR),
(§3) The cells are cultured in RPMI 1640 complete culture medium containing 10% fetal calf serum, 2 mM glutamine, 50 units/ml of penicillin, 50 μg/ml of streptomycin and 10 mM Hepes, pH=7.4. The cells are distributed on microtitre plates and exposed to the cytotoxic compounds. The cells are then incubated for 2 days (P388, L1210) or 4 days (A549, KB-A1, KB-3-1, IGROV1). The number of viable cells is then quantified by means of a calorimetric assay, the Microculture Tetrazolium Assay (Cancer Res. 1987, 47, 939-942).
(§4) The results are expressed as IC50, the concentration of cytotoxic agent that inhibits the proliferation of the treated cells by 50%.

L1210 cells = assay: Action on the cell cycle; type: cell-based, murine; settings: 500 nM, 21 hours, 37° C.; control: 20%
Description: L1210 cells are incubated for 21 hours at 37° C. in the presence of different concentrations of the products being tested. The cells are then fixed using 70% (v/v) ethanol, washed twice in PBS and incubated for 30 minutes at 20° C. in PBS containing 100 μg/ml of RNase and 50 μg/ml of propidium iodide. The results are expressed as the percentage of cells that have accumulated in the G2+M phase after 21 hours, compared to the control (control: 20%). At a concentration of 500 nM, the compound of Example 8 causes 80-90% of the cells to accumulate in the G2+M phase after 21 hours.

[2] = system: KB-3-1 human epidermoid carcinoma cells; assay: In vitro cytotoxicity (Microculture Tetrazolium Assay), KB-3-1; type: cell-based; settings: 96 h, KB-3-1, 4 days incubation, read-out: IC50, concentration that inhibits the proliferation of the treated cells by 50%
Description: as §1, §2, §3, §4

P388 leukaemia = assay: In vivo anti-tumour activity on the P388 leukaemia; parameters: species or system female BDF1 mice; settings: intraperitoneal, once per day for 4 days (D1-4)
Description: Line P388 (murine leukaemia) was supplied by the National Cancer Institute (Frederick, U.S.A.). The tumour cells (10^6 cells) were inoculated on day 0 into the peritoneal cavity of female BDF1 mice (Iffa-Credo, France) weighing from 18 to 20 g (groups of 6 animals). The products were administered by the intraperitoneal route once per day for 4 days (D1-4) at the doses indicated.
(§5) The anti-tumour activity is expressed as % T/C: [formula]

[3] = system: IGROV1 human ovarian carcinoma cells; assay: In vitro cytotoxicity (Microculture Tetrazolium Assay), IGROV1; type: cell-based; settings: IGROV-1, 96 h, IGROV1, 4 days incubation, read-out: IC50, concentration that inhibits the proliferation of the treated cells by 50%
Description: as §1
1 human ovarian carcinoma, IGROV1.
as §3, §4

[4] = system: cells originating from human solid tumours; assay: In vitro cytotoxicity, human solid tumour cells compared with murine leukaemias; type: cell-based; settings: versus P388 and L1210
Description: as §1, §3, §4

[5] = system: L1210 murine leukaemia cells; assay: In vitro cytotoxicity (Microculture Tetrazolium Assay), L1210; type: cell-based; settings: Mus musculus, 48 h; L1210, 2 days incubation; read-out: IC50, concentration that inhibits the proliferation of the treated cells by 50%
Description: as §1, §3, §4

[6] = system: P388 murine leukaemia cells; assay: In vitro cytotoxicity (Microculture Tetrazolium Assay), P388; type: cell-based; settings: Mus musculus, 48 h; P388, 2 days incubation; read-out: IC50, concentration that inhibits the proliferation of the treated cells by 50%
Description: as §1, §3, §4

[7] = system: A549 human non-small-cell lung carcinoma cells; assay: In vitro cytotoxicity (Microculture Tetrazolium Assay), A549; type: cell-based; settings: 96 h, A549, 4 days incubation, read-out: IC50, concentration that inhibits the proliferation of the treated cells by 50%
Description: as §1
1 human non-small-cell lung carcinoma, A549,
as §3, §4

IGROV1 ovarian carcinoma = assay: In vivo anti-tumour activity on the IGROV1 ovarian carcinoma; parameters: species or system nude BABL/C mice; settings: 200 mg/kg, intraperitoneal, once per week on days 4, 11 and 18
Description: as §5
IGROV1 tumour cells (10^7 cells) were incubated on day 0 in the peritoneal cavity of nude BABL/C mice (groups of 5 animals). The products were administered by the intraperitoneal route once per week on days 4, 11 and 18. The anti-tumour activity is expressed as % T/C as defined hereinbefore. The compound of Example 8 is active at the 200 mg/kg dose and increases the survival of the treated animals by 60% (T/C=160%).

For `O=C1c2scc(-c3ccc(O)c(O)c3)c2-n2cccc21` [Example 8, 3-(3,4-Dihydroxyphenyl)-8H-thieno[2,3-b]pyrrolizin-8-one], the IC50 [1] was 22 nM, the “percentage of cells that have accumulated in the G2+M phase” value (L1210 cells) was 80-90% and the IC50 [2] was 33 nM. For the same compound, the minimal effective dose (P388 leukaemia; Mus musculus, P388, ip, read-out: dose from which the compound is active) was at least 25 mg/kg, the “increase in survival of the treated animals” value (P388 leukaemia; active from the 25 mg/kg dose) was 70% and the IC50 [3] was 56 nM. For the same compound, the “effect on cells originating from human solid tumours compared with the two murine leukaemias” value [4] was “more potent effect on the cells originating from human solid tumours than on the two murine leukaemias”, the IC50 [5] was 222 nM and the IC50 [6] was 356 nM. The IC50 [7] was 122 nM, the T/C (IGROV1 ovarian carcinoma) was 160% and the “increase in survival of the treated animals” value (IGROV1 ovarian carcinoma) was 60%.
